Calls of active or inactive are those of the source.
How the values were obtained:
[1] = biological target: Receptor-interacting serine/threonine-protein kinase 3 (Homo sapiens, UniProt Q9Y572)
[2] = biological target: T1, Serine/threonine-protein kinase A-Raf (Homo sapiens, UniProt P10398)
T1 sequence (P10398 whole entry): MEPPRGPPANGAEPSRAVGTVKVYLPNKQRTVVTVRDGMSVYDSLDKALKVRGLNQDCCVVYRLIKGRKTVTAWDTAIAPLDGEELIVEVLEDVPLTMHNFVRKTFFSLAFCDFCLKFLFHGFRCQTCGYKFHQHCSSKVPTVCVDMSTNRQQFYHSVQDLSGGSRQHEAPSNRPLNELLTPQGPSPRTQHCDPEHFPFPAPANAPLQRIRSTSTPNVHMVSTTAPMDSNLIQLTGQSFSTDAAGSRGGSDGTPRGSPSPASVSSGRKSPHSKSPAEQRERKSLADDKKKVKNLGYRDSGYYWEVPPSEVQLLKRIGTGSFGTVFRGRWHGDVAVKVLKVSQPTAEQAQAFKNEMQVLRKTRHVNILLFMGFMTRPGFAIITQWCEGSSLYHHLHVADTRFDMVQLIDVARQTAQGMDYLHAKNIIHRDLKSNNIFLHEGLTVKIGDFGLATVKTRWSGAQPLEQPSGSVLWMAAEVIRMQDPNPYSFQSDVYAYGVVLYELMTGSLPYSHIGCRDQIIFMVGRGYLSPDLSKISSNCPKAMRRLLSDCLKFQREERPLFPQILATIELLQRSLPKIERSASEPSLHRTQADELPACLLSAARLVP

[3] = biological target: ATP-dependent RNA helicase DDX3X (Homo sapiens, UniProt O00571)
[4] = biological target: Proto-oncogene tyrosine-protein kinase Src (Homo sapiens, UniProt P12931)
[5] = biological target: MAP/microtubule affinity-regulating kinase 3 (Homo sapiens, UniProt P27448)
Heme oxygenase 2 = biological target: T2, Heme oxygenase 2 (Homo sapiens, UniProt P30519)
T2 sequence (P30519 whole entry): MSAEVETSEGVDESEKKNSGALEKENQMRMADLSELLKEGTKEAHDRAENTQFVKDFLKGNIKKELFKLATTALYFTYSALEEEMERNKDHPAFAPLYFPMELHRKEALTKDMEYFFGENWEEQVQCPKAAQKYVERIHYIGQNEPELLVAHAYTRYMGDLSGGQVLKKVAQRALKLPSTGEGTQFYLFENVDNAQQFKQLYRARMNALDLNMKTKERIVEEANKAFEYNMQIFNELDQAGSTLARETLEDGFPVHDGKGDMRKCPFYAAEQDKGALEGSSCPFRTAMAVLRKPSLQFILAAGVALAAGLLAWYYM

Midasin = Midasin (Homo sapiens, UniProt Q9NU22)
[6] = biological target: Tyrosine-protein kinase JAK1 (Homo sapiens, UniProt P23458)
[7] = biological target: T3, Peroxisomal acyl-coenzyme A oxidase 3 (Homo sapiens, UniProt O15254)
T3 sequence (O15254 whole entry): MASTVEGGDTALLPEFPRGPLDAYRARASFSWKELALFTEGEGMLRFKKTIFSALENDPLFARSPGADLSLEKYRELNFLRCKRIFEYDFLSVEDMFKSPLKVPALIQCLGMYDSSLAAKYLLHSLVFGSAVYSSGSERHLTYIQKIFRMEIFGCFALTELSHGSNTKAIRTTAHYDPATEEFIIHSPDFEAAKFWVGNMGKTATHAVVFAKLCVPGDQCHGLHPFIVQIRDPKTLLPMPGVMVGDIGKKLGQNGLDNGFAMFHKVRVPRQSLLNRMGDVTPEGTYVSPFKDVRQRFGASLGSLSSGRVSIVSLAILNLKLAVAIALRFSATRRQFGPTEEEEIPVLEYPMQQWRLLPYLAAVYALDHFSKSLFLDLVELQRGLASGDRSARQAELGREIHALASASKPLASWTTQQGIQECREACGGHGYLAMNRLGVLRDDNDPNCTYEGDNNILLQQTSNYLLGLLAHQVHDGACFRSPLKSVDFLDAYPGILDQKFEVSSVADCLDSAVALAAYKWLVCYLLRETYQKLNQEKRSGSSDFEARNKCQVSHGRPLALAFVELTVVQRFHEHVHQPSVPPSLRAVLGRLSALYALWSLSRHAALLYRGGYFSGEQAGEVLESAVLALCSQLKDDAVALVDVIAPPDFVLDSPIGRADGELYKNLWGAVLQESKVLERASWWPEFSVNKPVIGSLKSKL

[8] = biological target: T4, ATP-dependent RNA helicase DDX42 (Homo sapiens, UniProt Q86XP3)
T4 sequence (Q86XP3 whole entry): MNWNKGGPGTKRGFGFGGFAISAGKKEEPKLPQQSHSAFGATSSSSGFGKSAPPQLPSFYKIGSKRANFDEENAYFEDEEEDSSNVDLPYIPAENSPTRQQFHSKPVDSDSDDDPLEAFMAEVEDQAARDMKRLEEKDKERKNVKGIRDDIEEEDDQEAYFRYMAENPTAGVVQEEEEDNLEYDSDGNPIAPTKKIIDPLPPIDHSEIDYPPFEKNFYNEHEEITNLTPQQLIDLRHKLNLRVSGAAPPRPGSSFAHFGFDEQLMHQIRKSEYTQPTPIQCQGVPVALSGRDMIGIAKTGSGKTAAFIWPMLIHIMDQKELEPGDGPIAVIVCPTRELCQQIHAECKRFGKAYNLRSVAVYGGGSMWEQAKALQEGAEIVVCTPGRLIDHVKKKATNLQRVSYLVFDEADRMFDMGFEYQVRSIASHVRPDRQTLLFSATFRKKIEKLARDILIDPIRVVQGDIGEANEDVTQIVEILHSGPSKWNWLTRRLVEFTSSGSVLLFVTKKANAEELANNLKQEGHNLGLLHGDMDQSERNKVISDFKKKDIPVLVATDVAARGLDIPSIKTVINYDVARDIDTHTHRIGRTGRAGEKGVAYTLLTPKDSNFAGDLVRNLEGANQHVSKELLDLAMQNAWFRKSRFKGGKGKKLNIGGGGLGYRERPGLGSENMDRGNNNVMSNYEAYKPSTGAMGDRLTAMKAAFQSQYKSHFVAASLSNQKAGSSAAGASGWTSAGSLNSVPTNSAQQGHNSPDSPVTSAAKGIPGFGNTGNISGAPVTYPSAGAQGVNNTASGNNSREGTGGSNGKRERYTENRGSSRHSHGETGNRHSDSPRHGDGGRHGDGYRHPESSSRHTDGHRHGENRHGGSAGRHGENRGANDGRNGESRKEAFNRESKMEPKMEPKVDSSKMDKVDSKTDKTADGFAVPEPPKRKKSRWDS

[9] = biological target: Fibroblast growth factor receptor 1 (Homo sapiens, UniProt P11362)
Further: in the data inactive means no Kd found up to 30 µM.

Sequence of Receptor-interacting serine/threonine-protein kinase 3 (Q9Y572 whole entry): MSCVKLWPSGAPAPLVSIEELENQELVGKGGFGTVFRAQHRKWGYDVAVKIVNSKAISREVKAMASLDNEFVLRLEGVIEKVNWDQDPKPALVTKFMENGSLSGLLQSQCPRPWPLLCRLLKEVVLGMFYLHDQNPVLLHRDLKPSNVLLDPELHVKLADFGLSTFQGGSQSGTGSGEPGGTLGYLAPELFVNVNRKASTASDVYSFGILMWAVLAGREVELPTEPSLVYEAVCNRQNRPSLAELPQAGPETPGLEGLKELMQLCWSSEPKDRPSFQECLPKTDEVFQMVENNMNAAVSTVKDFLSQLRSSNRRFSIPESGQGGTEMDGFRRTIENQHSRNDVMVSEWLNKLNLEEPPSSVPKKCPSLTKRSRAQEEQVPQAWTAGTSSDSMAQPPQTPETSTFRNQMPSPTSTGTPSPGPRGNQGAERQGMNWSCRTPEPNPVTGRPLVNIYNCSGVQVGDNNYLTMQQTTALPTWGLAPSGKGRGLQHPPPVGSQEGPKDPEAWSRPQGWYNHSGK
Sequence of Fibroblast growth factor receptor 1 (P11362 whole entry): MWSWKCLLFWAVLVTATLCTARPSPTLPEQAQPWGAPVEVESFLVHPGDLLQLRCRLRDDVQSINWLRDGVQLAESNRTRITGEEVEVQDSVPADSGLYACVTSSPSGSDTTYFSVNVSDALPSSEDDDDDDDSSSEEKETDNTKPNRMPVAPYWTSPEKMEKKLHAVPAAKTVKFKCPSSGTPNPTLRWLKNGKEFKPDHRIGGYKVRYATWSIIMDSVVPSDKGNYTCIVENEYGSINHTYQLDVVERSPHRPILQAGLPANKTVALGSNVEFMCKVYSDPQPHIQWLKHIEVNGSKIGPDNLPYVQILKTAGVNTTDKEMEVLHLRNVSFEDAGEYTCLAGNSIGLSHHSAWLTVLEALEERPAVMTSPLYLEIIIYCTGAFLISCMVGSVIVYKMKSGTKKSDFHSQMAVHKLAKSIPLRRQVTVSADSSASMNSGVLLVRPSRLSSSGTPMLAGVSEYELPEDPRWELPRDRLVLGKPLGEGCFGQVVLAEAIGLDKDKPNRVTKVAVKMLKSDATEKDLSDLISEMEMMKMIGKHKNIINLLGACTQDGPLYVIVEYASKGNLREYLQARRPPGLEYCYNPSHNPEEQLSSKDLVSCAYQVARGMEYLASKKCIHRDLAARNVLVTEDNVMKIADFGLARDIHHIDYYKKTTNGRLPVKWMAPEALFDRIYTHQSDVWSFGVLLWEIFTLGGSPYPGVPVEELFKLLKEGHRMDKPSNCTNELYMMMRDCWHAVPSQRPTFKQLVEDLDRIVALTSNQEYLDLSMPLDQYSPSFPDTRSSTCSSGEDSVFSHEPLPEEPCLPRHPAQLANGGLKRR
Sequence of Proto-oncogene tyrosine-protein kinase Src (P12931 2-536 limits assumed): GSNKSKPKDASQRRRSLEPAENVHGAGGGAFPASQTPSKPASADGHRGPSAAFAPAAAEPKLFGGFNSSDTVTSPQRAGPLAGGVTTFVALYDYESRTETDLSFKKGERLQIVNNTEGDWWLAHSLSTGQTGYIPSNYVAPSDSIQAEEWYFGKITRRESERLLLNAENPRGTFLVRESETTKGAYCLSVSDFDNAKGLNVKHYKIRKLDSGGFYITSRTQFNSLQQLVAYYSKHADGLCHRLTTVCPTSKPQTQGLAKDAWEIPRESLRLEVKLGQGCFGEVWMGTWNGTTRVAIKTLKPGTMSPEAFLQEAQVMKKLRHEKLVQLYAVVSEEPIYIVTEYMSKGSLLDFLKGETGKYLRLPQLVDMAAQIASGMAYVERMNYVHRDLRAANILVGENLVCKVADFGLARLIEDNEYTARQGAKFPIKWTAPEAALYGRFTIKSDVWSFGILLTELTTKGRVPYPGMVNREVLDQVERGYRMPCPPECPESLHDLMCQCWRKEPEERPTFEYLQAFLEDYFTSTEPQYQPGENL
Sequence of Tyrosine-protein kinase JAK1 (P23458 whole entry): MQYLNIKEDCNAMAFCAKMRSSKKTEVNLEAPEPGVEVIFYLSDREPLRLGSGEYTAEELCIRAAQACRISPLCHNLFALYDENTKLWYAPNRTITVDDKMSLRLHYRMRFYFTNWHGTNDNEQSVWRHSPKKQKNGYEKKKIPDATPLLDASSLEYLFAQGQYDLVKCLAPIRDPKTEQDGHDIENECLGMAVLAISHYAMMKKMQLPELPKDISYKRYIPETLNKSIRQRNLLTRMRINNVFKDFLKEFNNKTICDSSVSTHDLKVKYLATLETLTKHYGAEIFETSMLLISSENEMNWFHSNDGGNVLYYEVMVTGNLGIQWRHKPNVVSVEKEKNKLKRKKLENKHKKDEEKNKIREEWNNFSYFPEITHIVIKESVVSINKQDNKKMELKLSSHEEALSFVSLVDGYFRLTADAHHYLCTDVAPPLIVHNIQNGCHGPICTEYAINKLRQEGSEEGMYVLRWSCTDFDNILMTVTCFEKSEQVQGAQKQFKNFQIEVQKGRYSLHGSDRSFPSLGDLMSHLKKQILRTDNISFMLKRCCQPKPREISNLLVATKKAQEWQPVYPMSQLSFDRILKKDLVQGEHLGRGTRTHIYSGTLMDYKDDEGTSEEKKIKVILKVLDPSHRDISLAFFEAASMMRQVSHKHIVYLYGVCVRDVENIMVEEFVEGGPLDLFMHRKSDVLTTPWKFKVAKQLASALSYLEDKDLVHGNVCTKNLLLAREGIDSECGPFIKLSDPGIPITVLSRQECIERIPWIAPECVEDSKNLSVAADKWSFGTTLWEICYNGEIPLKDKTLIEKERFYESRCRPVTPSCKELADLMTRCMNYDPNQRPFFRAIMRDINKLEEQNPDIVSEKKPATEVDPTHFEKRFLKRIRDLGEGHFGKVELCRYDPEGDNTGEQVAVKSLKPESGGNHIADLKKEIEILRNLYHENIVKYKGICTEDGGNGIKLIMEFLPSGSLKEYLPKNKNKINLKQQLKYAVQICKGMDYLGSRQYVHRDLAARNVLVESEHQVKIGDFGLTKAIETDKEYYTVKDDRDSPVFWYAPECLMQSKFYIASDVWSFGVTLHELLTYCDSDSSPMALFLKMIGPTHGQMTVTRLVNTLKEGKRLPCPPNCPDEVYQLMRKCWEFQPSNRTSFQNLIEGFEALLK
Sequence of ATP-dependent RNA helicase DDX3X (O00571 whole entry): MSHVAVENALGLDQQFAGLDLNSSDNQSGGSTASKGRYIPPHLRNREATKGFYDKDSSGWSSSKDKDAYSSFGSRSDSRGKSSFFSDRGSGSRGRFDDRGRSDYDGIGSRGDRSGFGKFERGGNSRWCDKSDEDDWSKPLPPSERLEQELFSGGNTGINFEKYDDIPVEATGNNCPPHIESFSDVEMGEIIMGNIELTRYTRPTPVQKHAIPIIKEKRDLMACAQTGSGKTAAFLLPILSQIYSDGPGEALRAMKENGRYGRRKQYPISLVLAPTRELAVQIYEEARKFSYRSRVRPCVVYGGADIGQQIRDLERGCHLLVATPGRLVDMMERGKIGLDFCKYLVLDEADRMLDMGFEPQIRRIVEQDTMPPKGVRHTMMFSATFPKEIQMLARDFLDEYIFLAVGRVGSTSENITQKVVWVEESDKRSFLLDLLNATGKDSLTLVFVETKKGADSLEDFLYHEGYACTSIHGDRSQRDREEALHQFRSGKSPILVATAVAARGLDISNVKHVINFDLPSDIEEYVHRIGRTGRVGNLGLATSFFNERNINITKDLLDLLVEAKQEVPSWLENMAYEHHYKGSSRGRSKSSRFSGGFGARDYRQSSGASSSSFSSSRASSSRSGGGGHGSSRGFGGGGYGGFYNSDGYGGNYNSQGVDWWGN
Sequence of MAP/microtubule affinity-regulating kinase 3 (P27448 whole entry): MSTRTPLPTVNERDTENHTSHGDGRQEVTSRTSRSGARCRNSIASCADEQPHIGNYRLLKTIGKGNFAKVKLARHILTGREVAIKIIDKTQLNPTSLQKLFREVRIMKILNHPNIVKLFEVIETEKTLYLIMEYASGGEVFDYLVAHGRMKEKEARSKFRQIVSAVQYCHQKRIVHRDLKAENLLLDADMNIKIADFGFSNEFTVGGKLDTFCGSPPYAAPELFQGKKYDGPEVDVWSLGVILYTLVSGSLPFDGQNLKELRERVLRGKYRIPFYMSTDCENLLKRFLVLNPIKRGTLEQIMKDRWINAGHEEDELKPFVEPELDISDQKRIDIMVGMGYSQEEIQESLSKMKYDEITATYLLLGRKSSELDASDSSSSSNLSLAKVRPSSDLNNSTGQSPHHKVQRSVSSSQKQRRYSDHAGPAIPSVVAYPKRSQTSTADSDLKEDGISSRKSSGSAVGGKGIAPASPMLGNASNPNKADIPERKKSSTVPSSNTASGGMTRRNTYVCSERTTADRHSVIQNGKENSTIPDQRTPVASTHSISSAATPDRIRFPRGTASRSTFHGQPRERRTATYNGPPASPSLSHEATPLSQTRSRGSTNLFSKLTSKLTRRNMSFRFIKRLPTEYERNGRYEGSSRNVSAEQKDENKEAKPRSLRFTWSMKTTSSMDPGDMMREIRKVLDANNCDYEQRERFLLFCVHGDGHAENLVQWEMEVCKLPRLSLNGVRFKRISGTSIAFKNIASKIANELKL

Kd [1]	Kd [2]	Kd [3]	Kd [4]	Kd [5]	Kd (Heme oxygenase 2)	Kd (Midasin)	Kd [6]	Kd [7]	Kd [8]	Kd [9]	Structure (SMILES)
> 30 µM (inactive)	> 30 µM (inactive)	> 30 µM (inactive)	> 30 µM (inactive)	> 30 µM (inactive)	> 30 µM (inactive)	> 30 µM (inactive)	> 30 µM (inactive)	> 30 µM (inactive)	> 30 µM (inactive)	> 30 µM (inactive)	Cn1ncc(Cl)c1-c1cc(C(=O)N[C@H](CN)Cc2cccc(F)c2)sc1Cl [AFURESERTIB]
0.967 µM (active)	> 30 µM (inactive)	> 30 µM (inactive)	> 30 µM (inactive)	> 30 µM (inactive)	> 30 µM (inactive)	> 30 µM (inactive)	> 30 µM (inactive)	> 30 µM (inactive)	> 30 µM (inactive)	> 30 µM (inactive)	COC(=O)N[C@@H](C)CNc1nccc(-c2cn(C(C)C)nc2-c2cc(Cl)cc(NS(C)(=O)=O)c2F)n1 [ENCORAFENIB]
2.08 µM (active)	2.14 µM (active)	> 30 µM (inactive)	> 30 µM (inactive)	> 30 µM (inactive)	> 30 µM (inactive)	> 30 µM (inactive)	> 30 µM (inactive)	> 30 µM (inactive)	> 30 µM (inactive)	> 30 µM (inactive)	CCCS(=O)(=O)Nc1ccc(F)c(C(=O)c2c[nH]c3ncc(-c4ccc(Cl)cc4)cc23)c1F [VEMURAFENIB]
> 30 µM (inactive)	> 30 µM (inactive)	> 30 µM (inactive)	> 30 µM (inactive)	> 30 µM (inactive)	> 30 µM (inactive)	> 30 µM (inactive)	> 30 µM (inactive)	> 30 µM (inactive)	> 30 µM (inactive)	> 30 µM (inactive)	CCN1CCN(Cc2ccc(-c3cc4c(N[C@H](C)c5ccccc5)ncnc4[nH]3)cc2)CC1 [AEE-788]
> 30 µM (inactive)	> 30 µM (inactive)	> 30 µM (inactive)	> 30 µM (inactive)	> 30 µM (inactive)	> 30 µM (inactive)	> 30 µM (inactive)	> 30 µM (inactive)	> 30 µM (inactive)	–	> 30 µM (inactive)	C[C@@H](Nc1cc(F)cc(F)c1)c1cc(C(=O)N(C)C)cc2c(=O)cc(N3CCOCC3)oc12 [AZD-8186]
> 30 µM (inactive)	–	> 30 µM (inactive)	> 30 µM (inactive)	> 30 µM (inactive)	> 30 µM (inactive)	> 30 µM (inactive)	> 30 µM (inactive)	> 30 µM (inactive)	> 30 µM (inactive)	> 30 µM (inactive)	CN1N=C(N)c2cn([C@@H]3O[C@H](COP(=O)(O)O)[C@@H](O)[C@H]3O)c3ncnc1c23 [TRICIRIBINE PHOSPHATE]
> 30 µM (inactive)	> 30 µM (inactive)	> 30 µM (inactive)	> 30 µM (inactive)	> 30 µM (inactive)	> 30 µM (inactive)	> 30 µM (inactive)	> 30 µM (inactive)	> 30 µM (inactive)	–	> 30 µM (inactive)	C[C@@H]1CN(Cc2ccc(F)cc2)[C@@H](C)CN1C(=O)c1cc2c(C(=O)C(=O)N(C)C)cn(C)c2cc1Cl [TALMAPIMOD]
> 30 µM (inactive)	> 30 µM (inactive)	> 30 µM (inactive)	> 30 µM (inactive)	> 30 µM (inactive)	> 30 µM (inactive)	> 30 µM (inactive)	> 30 µM (inactive)	> 30 µM (inactive)	–	> 30 µM (inactive)	Cc1ccc(S(=O)(=O)Nc2nc3ccccc3nc2Nc2ccc3nsnc3c2)cc1
> 30 µM (inactive)	> 30 µM (inactive)	> 30 µM (inactive)	> 30 µM (inactive)	0.104 µM (active)	> 30 µM (inactive)	> 30 µM (inactive)	–	> 30 µM (inactive)	> 30 µM (inactive)	> 30 µM (inactive)	CCS(=O)(=O)N1CC(CC#N)(n2cc(-c3ncnc4[nH]ccc34)cn2)C1 [BARICITINIB]
> 30 µM (inactive)	> 30 µM (inactive)	> 30 µM (inactive)	> 30 µM (inactive)	> 30 µM (inactive)	> 30 µM (inactive)	> 30 µM (inactive)	> 30 µM (inactive)	> 30 µM (inactive)	–	> 30 µM (inactive)	COc1cc(OC)c(/C=C/S(=O)(=O)Cc2ccc(OC)c(NCC(=O)O)c2)c(OC)c1 [RIGOSERTIB]

Structure (SMILES)	Kd [1]	Kd [2]	Kd [3]	Kd [4]	Kd [5]	Kd (Heme oxygenase 2)	Kd (Midasin)	Kd [6]	Kd [7]	Kd [8]	Kd [9]
Cc1cc(-c2cc(O)ccc2Cl)cc2nnc(Nc3ccc(OCCN4CCCC4)cc3)nc12	0.003 µM (active)	> 30 µM (inactive)	> 30 µM (inactive)	0.001 µM (active)	> 30 µM (inactive)	> 30 µM (inactive)	> 30 µM (inactive)	> 30 µM (inactive)	> 30 µM (inactive)	> 30 µM (inactive)	> 30 µM (inactive)
C=CC(=O)N1CCC(Oc2cc3c(Nc4ccc(Cl)c(Cl)c4F)ncnc3cc2OC)CC1 [POZIOTINIB]	0.392 µM (active)	> 30 µM (inactive)	> 30 µM (inactive)	> 30 µM (inactive)	> 30 µM (inactive)	> 30 µM (inactive)	> 30 µM (inactive)	> 30 µM (inactive)	> 30 µM (inactive)	–	> 30 µM (inactive)
CN1CCC(COc2cnc(-c3cccc(Cn4nc(-c5cccc(C#N)c5)ccc4=O)c3)nc2)CC1 [TEPOTINIB]	> 30 µM (inactive)	> 30 µM (inactive)	> 30 µM (inactive)	> 30 µM (inactive)	> 30 µM (inactive)	> 30 µM (inactive)	> 30 µM (inactive)	–	> 30 µM (inactive)	> 30 µM (inactive)	> 30 µM (inactive)

— ChEMBL document CHEMBL3991601, “The target landscape of clinical kinase drugs” (Science, 2017)
